In patent publication US20070270441A1, “Combination” (Altana Pharma AG, priority 2001, published 2007):
“Also recorded” adds a separate entry of the source.

What was measured:
[1] = tested on: Collagen-induced arthritis (CIA) in DBA/1 mice; assay: Collagen-induced arthritis (CIA) in DBA/1 mice; assay type: in vivo; settings: for severity of arthritis compared with control mice: single drug, oral daily for 10 consecutive days, ROFLUMILAST 1 mg/kg, PUMAFENTRINE hydrochloride 3 mg/kg, significant on days 35 and 39
Method: Collagen-induced arthritis (CIA) in DBA/1 mice: Mice were immunized intradermally with 200 μg/mouse of type II (CII) bovine collagen in Freund's complete adjuvant (FCA) and challenged intraperitoneally 21 days later with 200 μg/mouse of CII in saline. The mice were then administered orally either with 1 mg/kg/day of 3-Cyclopropylmethoxy-4-difluoromethoxy-N-(3,5-dichloropyrid-4-yl)-benzamide [INN: ROFLUMILAST], 3 mg/kg/day of (−)-cis-9-ethoxy-8-methoxy-2-methyl-1,2,3,4,4a,10b-hexahydro-6-(4-diisopropylaminocarbonylphenyl)-benzo[c][1,6]naphthyridine hydrochloride [INN: PUMAFENTRINE hydrochloride], 1 mg/kg/day of METHOTREXATE, or with combinations of METHOTREXATE and the PDE inhibitors for 10 consecutive days, starting 2 days after challenge injection. Control mice received either METHOTREXATE alone (1 mg/kg/day) or the vehicle only.
DBA/1 mice were obtained from Harlan Olac (Bicester, UK) and used 8 weeks old. CIA was induced as described previously (Ruchatz, H., et al., J Immunol. 1998, 160(11):5654-60). Briefly, mice were immunised by intradermal injection of 200 μg of acidified type II collagen (Sigma, Poole UK) emulsified in Freund's Complete adjuvant (FCA, Difco, Detroit, Mich., USA). Collagen (200 μg in PBS) was injected intraperitoneally on day 21 (challenge). Mice were individually ear marked for identification. They were monitored daily and scored every other day for signs of arthritis as follows: 0=normal, 1=erythema, 2=erythema plus swelling, 3=extension/loss of function, and total score=sum of four limbs. Paw thickness was measured with a dial-calliper (Kroeplin, Munich, Germany). […] (3 mg/kg, calculated for PUMAFENTRINE), METHOTREXATE (1 mg/kg), or combinations were administered orally daily by a gavage tube for 10 consecutive days. […] Treatment was withdrawn on day 33 and the mice monitored for a further 8 days. Influence of drug treatments on mean clinical index, arthritic paws and paw thickness were analysed by one-way ANOVA at days 31, 35, and 39. Between group differences in incidence of arthritis were analysed by chi-square test.

[2] = tested on: rheumatoid arthritis patients unresponsive to METHOTREXATE alone; settings: combination with METHOTREXATE; cited from earlier work
[3] = tested on: rheumatoid arthritis patients with active disease despite METHOTREXATE treatment; settings: in combination with a fixed low-dose (7.5 mg per week) of METHOTREXATE; small number of patients; cited from earlier work

## CN(Cc1cnc2nc(N)nc(N)c2n1)c1ccc(C(=O)N[C@@H](CCC(=O)O)C(=O)O)cc1 [METHOTREXATE, N-(p{[(2,4-diamino-6-pteridinyl)methyl]methylamino}benzoyl)-L-(+)-glutamic acid]
[1]; METHOTREXATE alone 1 mg/kg/day, oral, 10 days
  clinical improvement compared with control mice: failed to produce a significant clinical improvement; also recorded: failed to demonstrate any clinical improvement

## CCOc1cc2c(cc1OC)C(c1ccc(C(=O)N(C(C)C)C(C)C)cc1)=N[C@H]1CCN(C)C[C@@H]21.Cl [PUMAFENTRINE hydrochloride, (−)-cis-9-ethoxy-8-methoxy-2-methyl-1,2,3,4,4a,10b-hexahydro-6-(4-diisopropylaminocarbonylphenyl)-benzo[c][1,6]naphthyridine hydrochloride]
[1]; hydrochloride
  severity of arthritis compared with control mice: effective in reducing the severity of arthritis; also recorded: significantly less severe disease

## O=C(Nc1c(Cl)cncc1Cl)c1ccc(OC(F)F)c(OCC2CC2)c1 [ROFLUMILAST, 3-Cyclopropylmethoxy-4-difluoromethoxy-N-(3,5-dichloropyrid-4-yl)-benzamide]
[1]
  severity of arthritis compared with control mice: effective in reducing the severity of arthritis; also recorded: significantly less severe disease

## ETANERCEPT
[2]
  efficacy in rheumatoid arthritis: effective

## INFLIXIMAB: chimeric human-murine monoclonal antibody, a specific inhibitor of tumour necrosis factor alpha
[3]
  degree and duration of efficacy: enhanced degree and duration of efficacy
